Results taken from ChEMBL document CHEMBL5726283, “Cycloalkyl nitrile pyrazolo pyridones as Janus kinase inhibitors” (2017).

Columns and labels:
[1] = biological target: Tyrosine-protein kinase JAK1 (Homo sapiens, UniProt P23458); assay: Biochemical HTRF Assay Protocol: The ability of compounds to inhibit the activity of JAK1, JAK2, JAK3, and Tyk2 was measured using a recombinant purified GST-tagged catalytic domain for each enzyme (Invitrogen JAK1 #M4290, JAK2 #M4290, JAK3 #M4290, Tyk2 #M4290) in an HTRF format biochemical assay. The reactions employed a common peptide substrate, LCB-[…]-NH2 (in-house). The basic assay protocol is as follows: First, 250 nL of diluted compounds in DMSO were dispensed into the wells of a dry 384-well Black plate (Greiner #781076) using a Labcyte Echo 555 acoustic dispenser. Subsequent reagent additions employed an Agilent Bravo. Next, 18 μL of 1.11× enzyme and 1.11× substrate in 1× assay buffer (Invitrogen kinase buffer #PV3189, 2 mM DTT, 0.05% BSA) were added to the wells and shaken and then preincubated for 30 minutes at room temperature to allow compound binding to equilibrate. After equilibration, 2 μL of 10×ATP in 1× assay buffer was added to initiate the kinase reaction and the plates were shaken and then incubated at room temperature for 120 minutes. At the end of the incubation, 20 μL of 2× stop buffer (streptavidin-Dylight 650 (Thermo #84547B/100 mL), Eu-tagged pY20 antibody (Perkin Elmer #AD0067), EDTA, HEPES, and Triton) was added to quench the reaction. Plates were shaken and centrifuged and then incubated 60 minutes at room temperature and then read on a Perkin Elmer Envision (λex=337 nm, λem=665 and 615 nm, TRF delay time=20 μs). HTRF signal=10,000*665 nm reading/615 nm reading. After normalization to untreated controls, the percent inhibition of the HTRF signal at each compound concentration was calculated.
Chain of Tyrosine-protein kinase JAK1 (P23458 whole entry, the tested form may be a part): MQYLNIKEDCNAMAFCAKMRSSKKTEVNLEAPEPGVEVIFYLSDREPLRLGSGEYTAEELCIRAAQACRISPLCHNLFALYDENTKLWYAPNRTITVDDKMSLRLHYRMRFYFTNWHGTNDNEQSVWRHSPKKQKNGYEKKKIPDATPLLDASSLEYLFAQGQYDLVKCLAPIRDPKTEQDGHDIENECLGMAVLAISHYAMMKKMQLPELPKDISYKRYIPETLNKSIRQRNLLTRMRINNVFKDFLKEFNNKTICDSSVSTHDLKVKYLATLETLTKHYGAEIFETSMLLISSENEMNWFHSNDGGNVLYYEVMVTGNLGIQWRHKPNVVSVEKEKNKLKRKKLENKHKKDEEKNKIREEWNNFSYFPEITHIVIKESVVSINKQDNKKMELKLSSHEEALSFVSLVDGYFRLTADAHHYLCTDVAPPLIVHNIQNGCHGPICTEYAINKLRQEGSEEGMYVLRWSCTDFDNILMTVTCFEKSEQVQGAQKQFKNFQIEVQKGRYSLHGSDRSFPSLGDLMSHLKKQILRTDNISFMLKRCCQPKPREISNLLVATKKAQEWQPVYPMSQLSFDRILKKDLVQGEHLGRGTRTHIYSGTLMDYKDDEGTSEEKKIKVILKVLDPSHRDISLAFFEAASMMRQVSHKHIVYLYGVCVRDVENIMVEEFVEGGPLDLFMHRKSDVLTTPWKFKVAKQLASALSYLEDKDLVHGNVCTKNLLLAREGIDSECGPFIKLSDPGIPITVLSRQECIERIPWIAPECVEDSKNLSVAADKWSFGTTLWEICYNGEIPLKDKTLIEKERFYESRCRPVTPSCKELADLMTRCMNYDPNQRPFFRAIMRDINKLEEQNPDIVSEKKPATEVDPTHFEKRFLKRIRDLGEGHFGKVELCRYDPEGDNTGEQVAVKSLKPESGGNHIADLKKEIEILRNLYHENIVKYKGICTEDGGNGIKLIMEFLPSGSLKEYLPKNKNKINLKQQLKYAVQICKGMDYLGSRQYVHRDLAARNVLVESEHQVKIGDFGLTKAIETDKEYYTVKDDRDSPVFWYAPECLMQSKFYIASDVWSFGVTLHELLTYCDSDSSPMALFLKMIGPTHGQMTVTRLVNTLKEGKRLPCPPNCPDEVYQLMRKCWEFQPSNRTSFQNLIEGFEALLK

[2] = biological target: Tyrosine-protein kinase JAK2 (Homo sapiens, UniProt O60674); assay: Biochemical HTRF Assay Protocol: The ability of compounds to inhibit the activity of JAK1, JAK2, JAK3, and Tyk2 was measured using a recombinant purified GST-tagged catalytic domain for each enzyme (Invitrogen JAK1 #M4290, JAK2 #M4290, JAK3 #M4290, Tyk2 #M4290) in an HTRF format biochemical assay. […] Subsequent reagent additions employed an Agilent Bravo. […] After equilibration, 2 μL of 10×ATP in 1× assay buffer was added to initiate the kinase reaction and the plates were shaken and then incubated at room temperature for 120 minutes. […] After normalization to untreated controls, the percent inhibition of the HTRF signal at each compound concentration was calculated.
Chain of Tyrosine-protein kinase JAK2 (O60674 whole entry, the tested form may be a part): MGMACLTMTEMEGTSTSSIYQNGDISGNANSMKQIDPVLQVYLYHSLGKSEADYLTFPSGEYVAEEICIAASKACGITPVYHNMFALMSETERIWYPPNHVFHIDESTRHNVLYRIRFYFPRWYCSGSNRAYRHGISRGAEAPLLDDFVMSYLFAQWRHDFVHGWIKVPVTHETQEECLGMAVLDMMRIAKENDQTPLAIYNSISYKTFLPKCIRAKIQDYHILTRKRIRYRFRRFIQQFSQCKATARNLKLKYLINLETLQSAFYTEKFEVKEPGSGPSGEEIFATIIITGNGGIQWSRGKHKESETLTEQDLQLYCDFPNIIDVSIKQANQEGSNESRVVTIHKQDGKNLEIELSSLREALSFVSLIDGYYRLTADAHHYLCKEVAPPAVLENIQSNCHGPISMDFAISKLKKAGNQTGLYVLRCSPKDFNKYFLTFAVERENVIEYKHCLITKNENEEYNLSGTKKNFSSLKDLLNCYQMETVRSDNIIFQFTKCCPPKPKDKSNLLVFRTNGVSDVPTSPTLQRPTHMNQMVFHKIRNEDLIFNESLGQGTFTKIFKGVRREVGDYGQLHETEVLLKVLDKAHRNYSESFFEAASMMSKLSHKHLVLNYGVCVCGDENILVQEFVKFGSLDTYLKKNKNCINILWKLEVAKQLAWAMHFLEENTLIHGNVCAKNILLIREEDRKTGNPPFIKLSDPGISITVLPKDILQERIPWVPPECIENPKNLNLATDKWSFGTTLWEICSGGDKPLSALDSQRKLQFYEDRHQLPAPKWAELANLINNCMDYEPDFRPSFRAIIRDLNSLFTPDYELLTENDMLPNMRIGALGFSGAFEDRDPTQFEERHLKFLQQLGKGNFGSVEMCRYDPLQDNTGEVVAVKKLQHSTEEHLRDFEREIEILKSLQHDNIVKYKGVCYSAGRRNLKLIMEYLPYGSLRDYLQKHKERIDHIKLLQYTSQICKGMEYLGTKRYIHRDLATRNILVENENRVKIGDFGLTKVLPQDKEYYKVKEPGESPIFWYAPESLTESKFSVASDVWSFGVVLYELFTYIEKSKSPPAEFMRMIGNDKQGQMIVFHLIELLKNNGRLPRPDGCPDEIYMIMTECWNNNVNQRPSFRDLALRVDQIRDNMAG

SMILES: N#C[C@H]1C[C@H](O)CC[C@@H]1n1nc(Nc2ccc(C(F)(F)F)cc2)c2c(=O)[nH]ccc21
- IC50 [1]: 0.48 nM

SMILES: CN(C)S(=O)(=O)c1ccc(Nc2nn([C@H]3CCC[C@@H]3C#N)c3cc[nH]c(=O)c23)cc1
- IC50 [1]: 0.11 nM
- IC50 [2]: 0.3 nM

SMILES: Cc1cc(Nc2nn([C@H]3CCCC[C@@H]3C#N)c3cc[nH]c(=O)c23)ccc1C(=O)N1CCC(F)(F)CC1
- IC50 [1]: 0.32 nM
- IC50 [2]: 0.37 nM

SMILES: CS(=O)(=O)c1ccc(Nc2nn([C@@H]3CCC[C@H]3C#N)c3cc[nH]c(=O)c23)cc1
- IC50 [1]: 4.7 nM
